Reference: patent publication US20220128542A1, “TREATMENT EFFICIENCY EVALUATION” (TX MEDIC AB, priority 2019, published 2022)
Marks after values point to notes of the source that are not given here.

System: brain of rats subjected to severe traumatic brain injury (sTBI)
Experiment: HPLC of purine-pyrimidine metabolites (energy state, oxidative/nitrosative stress) in brain after sTBI (Example 1)
Assay type: in vivo, rat
Conditions: sacrifice day 7
Description: They were divided into three groups:
1) n=6 animals subjected to sTBI, with drug administration after 30 minutes and sacrifice at 2 days post-TBI (Acute phase 1)
2) n=6 animals subjected to sTBI, with drug administration after 30 minutes and sacrifice at 7 days post-TBI (Acute phase 2).
3) n=6 animals subjected to sTBI, with drug administration after 3 days and sacrifice at 7 days post-TBI (Chronic phase).
The drug treatment was a subcutaneous injection of 0.5 ml of LMW-DS (15 mg/kg) and administered according to the aforementioned schematic protocol.
After the wet weight (w.w.) determination, tissue preparation was affected as previously disclosed (Tavazzi et al., Neurosurgery. 2005; 56: 582-589; Vagnozzi et al., Neurosurgery. 2007; 61: 379-388; Tavazzi et al., Neurosurgery. 2007; 61: 390-395; Amorini et al., J Cell Mol Med. 2017; 21: 530-542.). Briefly, whole brain homogenization was performed with 7 ml of ice-cold, nitrogen-saturated, precipitating solution composed by CH3CN+10 mM KH2PO4, pH 7.40, (3:1; v:v), and using an Ultra-Turrax set at 24,000 rpm/min (Janke & Kunkel, Staufen, Germany). After centrifugation at 20,690×g, for 10 min at 4° C., the clear supernatants were saved, pellets were supplemented with 3 ml of the precipitating solution and homogenized again as described above. A second centrifugation was performed (20,690×g, for 10 min at 4° C.), pellets were saved, supernatants combined with those previously obtained, extracted by vigorous agitation with a double volume of HPLC-grade CHCl3 and centrifuged as above. The upper aqueous phases containing water-soluble low-molecular weight compounds were collected, subjected to chloroform washings for two more times (this procedure allowed the removal of all the organic solvent and of any lipid soluble compound from the buffered tissue extracts), adjusted in volumes with 10 mM KH2PO4, pH 7.40, to have ultimately aqueous 10% tissue homogenates and saved at −80° C. until assayed.
Aliquots of each deproteinized tissue samples were filtered through a 0.45 μm HV Millipore filter and loaded (200 μl) onto a Hypersil C-18, 250×4.6 mm, 5 μm particle size column, provided with its own guard column (Thermo Fisher Scientific, Rodano, Milan, Italy) and connected to an HPLC apparatus consisting of a Surveyor System (Thermo Fisher Scientific, Rodano, Milan, Italy) with a highly sensitive diode array detector (equipped with a 5 cm light path flow cell) and set up between 200 and 300 nm wavelength. Data acquisition and analysis were performed by a PC using the ChromQuest® software package provided by the HPLC manufacturer.
Metabolites belonging to the purine-pyrimidine profiles (listed below) and related to tissue energy state, mitochondrial function and relative to oxidative-nitrosative stresses were separated, in a single chromatographic run, according to slight modifications of existing ion-pairing HPLC methods (Lazzarino et al., Anal Biochem. 2003; 322: 51-59; Tavazzi et al., Clin Biochem. 2005; 38: 997-1008). Assignment and calculation of the compounds of interest in chromatographic runs of tissue extracts were carried out at the proper wavelengths (206, 234 and 260 nm) by comparing retention times, absorption spectra and areas of peaks with those of peaks of chromatographic runs of freshly-prepared ultra-pure standard mixtures with known concentrations. […]

[1] = Acute phase 2: 15 mg/kg s.c. 30 min post-sTBI
[2] = Chronic phase: 15 mg/kg s.c. 3 days post-sTBI

sodium salt of dextran sulfate [LMW-DS] was tested. Which NO2 brain concentration [1] did it give?
The NO2 brain concentration was 226.40 ± 30.95^b nmol/g (w.w.).

And the NO3 brain concentration [1]?
Its NO3 brain concentration is 198.56 ± 25.93^e, i nmol/g (w.w.).

What about the UDP brain concentration [1] of the same substance?
The UDP brain concentration was 40.38 ± 8.50^a, i nmol/g (w.w.).

What about the UDP-Gal brain concentration [1] of the same substance?
Its UDP-Gal brain concentration is 145.14 ± 27.76 nmol/g (w.w.).

And the UDP-GalNac brain concentration [1]?
Its UDP-GalNac brain concentration is 19.90 ± 3.12^a, e nmol/g (w.w.).

And the UDP-Glc brain concentration [1]?
The UDP-Glc brain concentration was 44.44 ± 7.59^j nmol/g (w.w.).

What about the UDP-GlcNac brain concentration [1] of the same substance?
The UDP-GlcNac brain concentration was 130.65 ± 28.41^a nmol/g (w.w.).

And the UMP brain concentration [1]?
Its UMP brain concentration is 138.73 ± 32.01^b nmol/g (w.w.).

What about the UTP brain concentration [1] of the same substance?
Its UTP brain concentration is 146.71 ± 32.68^e nmol/g (w.w.).

What about the acetyl-CoA brain concentration [1] of the same substance?
The acetyl-CoA brain concentration was 36.86 ± 4.11^e nmol/g (w.w.).

What about the adenine brain concentration [1] of the same substance?
The adenine brain concentration was 58.16 ± 6.36^a, f nmol/g (w.w.).

What about the “ascorbic acid brain concentration” value [1] of the same substance?
The value was 3512.58 ± 224.62^a, e nmol/g (w.w.).

And the creatinine brain concentration [1]?
The creatinine brain concentration was 37.27 ± 5.82^a, e, j nmol/g (w.w.).

What about the cytidine brain concentration [1] of the same substance?
Its cytidine brain concentration is 16.18 ± 4.21^e nmol/g (w.w.).

And the cytosine brain concentration [1]?
The cytosine brain concentration was 15.70 ± 4.10^f nmol/g (w.w.).

And the guanine brain concentration [1]?
Its guanine brain concentration is 4.73 ± 1.07 nmol/g (w.w.).

What about the guanosine brain concentration [1] of the same substance?
Its guanosine brain concentration is 17.90 ± 3.24^j nmol/g (w.w.).

And the hypoxanthine brain concentration [1]?
Its hypoxanthine brain concentration is 12.90 ± 2.58^a, j nmol/g (w.w.).

What about the inosine brain concentration [1] of the same substance?
Its inosine brain concentration is 85.52 ± 20.36^e nmol/g (w.w.).

And the malonyl-CoA brain concentration [1]?
Its malonyl-CoA brain concentration is 11.29 ± 2.27^b nmol/g (w.w.).

What about the “orotic acid brain concentration” value [1] of the same substance?
The value was 13.34 ± 3.65^a nmol/g (w.w.).

And the thymidine brain concentration [1]?
Its thymidine brain concentration is 0.49 ± 0.20^f nmol/g (w.w.).

And the uracil brain concentration [1]?
Its uracil brain concentration is 19.40 ± 7.52^a, e nmol/g (w.w.).

What about the “uric acid brain concentration” value [1] of the same substance?
The value was 19.17 ± 2.15^a, h, i nmol/g (w.w.).

And the uridine brain concentration [1]?
The uridine brain concentration was 63.02 ± 9.66^b, e nmol/g (w.w.).

What about the xanthine brain concentration [1] of the same substance?
Its xanthine brain concentration is 10.41 ± 2.11^f nmol/g (w.w.).

And the β-pseudouridine brain concentration [1]?
The β-pseudouridine brain concentration was 13.26 ± 3.16^a, e, j nmol/g (w.w.).

What about the ADO brain concentration [2] of the same substance?
The ADO brain concentration was 89.97 ± 12.98^a nmol/g (w.w.).

What about the ADP brain concentration [2] of the same substance?
Its ADP brain concentration is 315.53 ± 46.53^a nmol/g (w.w.).

What about the ADP-ribose brain concentration [2] of the same substance?
The ADP-ribose brain concentration was 173.94 ± 8.45^a nmol/g (w.w.).

And the AMP brain concentration [2]?
The AMP brain concentration was 90.01 ± 21.24^a nmol/g (w.w.).

And the ATP brain concentration [2]?
The ATP brain concentration was 1381.03 ± 212.64^a nmol/g (w.w.).

What about the CDP brain concentration [2] of the same substance?
The CDP brain concentration was 23.55 ± 6.45^a nmol/g (w.w.).

What about the “CDP choline brain concentration” value [2] of the same substance?
The value was 8.37 ± 2.19 nmol/g (w.w.).

What about the CMP brain concentration [2] of the same substance?
The CMP brain concentration was 20.51 ± 3.73^a, f nmol/g (w.w.).

And the CTP brain concentration [2]?
Its CTP brain concentration is 25.23 ± 2.93^a, f nmol/g (w.w.).

What about the CoA-SH brain concentration [2] of the same substance?
Its CoA-SH brain concentration is 27.58 ± 6.24^f nmol/g (w.w.).

What about the GDP brain concentration [2] of the same substance?
The GDP brain concentration was 173.05 ± 28.68^a, e nmol/g (w.w.).

And the “GDP glucose brain concentration” value [2]?
The value was 43.85 ± 5.06^b nmol/g (w.w.).

What about the GMP brain concentration [2] of the same substance?
Its GMP brain concentration is 148.56 ± 31.21^a nmol/g (w.w.).

And the GSH brain concentration [2]?
The GSH brain concentration was 2608.67 ± 358.07^a, e nmol/g (w.w.).

What about the GSSG brain concentration [2] of the same substance?
Its GSSG brain concentration is 231.08 ± 44.34^b, f nmol/g (w.w.).

And the GTP brain concentration [2]?
The GTP brain concentration was 290.92 ± 34.68^a, f nmol/g (w.w.).

What about the IMP brain concentration [2] of the same substance?
Its IMP brain concentration is 99.29 ± 13.82^a nmol/g (w.w.).

And the MDA brain concentration [2]?
The MDA brain concentration was 11.62 ± 3.90^a, e nmol/g (w.w.).

What about the NAA brain concentration [2] of the same substance?
The NAA brain concentration was 6375.36 ± 974.12^a, e nmol/g (w.w.).

What about the NADH brain concentration [2] of the same substance?
Its NADH brain concentration is 11.78 ± 3.32^e nmol/g (w.w.).

And the NADPH brain concentration [2]?
The NADPH brain concentration was 7.34 ± 2.65^f nmol/g (w.w.).

What about the “NADP^+ brain concentration” value [2] of the same substance?
Its value is 16.44 ± 2.66^a, f nmol/g (w.w.).

What about the “NAD^+ brain concentration” value [2] of the same substance?
Its value is 301.13 ± 29.90^a nmol/g (w.w.).

What about the NO2 brain concentration [2] of the same substance?
Its NO2 brain concentration is 217.67 ± 55.04^a nmol/g (w.w.).

What about the NO3 brain concentration [2] of the same substance?
The NO3 brain concentration was 241.27 ± 18.84^e nmol/g (w.w.).

And the UDP brain concentration [2]?
The UDP brain concentration was 57.40 ± 5.88^a, f nmol/g (w.w.).

What about the UDP-Gal brain concentration [2] of the same substance?
Its UDP-Gal brain concentration is 122.29 ± 12.15 nmol/g (w.w.).

What about the UDP-GalNac brain concentration [2] of the same substance?
Its UDP-GalNac brain concentration is 21.84 ± 2.80^a, e nmol/g (w.w.).

And the UDP-Glc brain concentration [2]?
Its UDP-Glc brain concentration is 35.79 ± 3.45^b nmol/g (w.w.).

And the UDP-GlcNac brain concentration [2]?
The UDP-GlcNac brain concentration was 129.42 ± 15.88^b nmol/g (w.w.).

And the UMP brain concentration [2]?
The UMP brain concentration was 103.11 ± 29.79 nmol/g (w.w.).

What about the UTP brain concentration [2] of the same substance?
Its UTP brain concentration is 136.80 ± 33.25^f nmol/g (w.w.).

What about the acetyl-CoA brain concentration [2] of the same substance?
The acetyl-CoA brain concentration was 35.68 ± 6.55^e nmol/g (w.w.).

And the adenine brain concentration [2]?
The adenine brain concentration was 52.94 ± 8.59^a, f nmol/g (w.w.).

And the “ascorbic acid brain concentration” value [2]?
The value was 3375.03 ± 856.41^a, e nmol/g (w.w.).

And the creatinine brain concentration [2]?
Its creatinine brain concentration is 51.25 ± 10.17^a, f nmol/g (w.w.).

And the cytidine brain concentration [2]?
Its cytidine brain concentration is 14.71 ± 2.83^e nmol/g (w.w.).

What about the cytosine brain concentration [2] of the same substance?
The cytosine brain concentration was 15.58 ± 2.50^b, f nmol/g (w.w.).

What about the guanine brain concentration [2] of the same substance?
The guanine brain concentration was 5.31 ± 1.04^b nmol/g (w.w.).

What about the guanosine brain concentration [2] of the same substance?
The guanosine brain concentration was 28.87 ± 7.60^a, f nmol/g (w.w.).

And the hypoxanthine brain concentration [2]?
The hypoxanthine brain concentration was 17.97 ± 4.49^a nmol/g (w.w.).

And the inosine brain concentration [2]?
The inosine brain concentration was 105.81 ± 25.57^f nmol/g (w.w.).

And the malonyl-CoA brain concentration [2]?
Its malonyl-CoA brain concentration is 10.00 ± 1.95^b nmol/g (w.w.).

What about the “orotic acid brain concentration” value [2] of the same substance?
The value was 12.05 ± 1.50^a nmol/g (w.w.).

And the thymidine brain concentration [2]?
The thymidine brain concentration was 0.71 ± 0.11 nmol/g (w.w.).

What about the uracil brain concentration [2] of the same substance?
The uracil brain concentration was 16.57 ± 2.99^a, f nmol/g (w.w.).

What about the “uric acid brain concentration” value [2] of the same substance?
The value was 27.77 ± 3.60^a nmol/g (w.w.).

What about the uridine brain concentration [2] of the same substance?
Its uridine brain concentration is 63.28 ± 3.37^f nmol/g (w.w.).

What about the xanthine brain concentration [2] of the same substance?
The xanthine brain concentration was 9.35 ± 0.83^f nmol/g (w.w.).

What about the β-pseudouridine brain concentration [2] of the same substance?
The β-pseudouridine brain concentration was 18.62 ± 2.80^a nmol/g (w.w.).
